The values that follow come from ChEMBL document CHEMBL1201862, “PubChem BioAssay data set” (2004).

Test systems include CCRF-CEM; M14; Hs-578T; SK-MEL-2; Malme-3M; K562; MDA-MB-435; SN12C; SR; HOP-62; ACHN; NCI-H23; HT-29; TK-10; HCT-116; SNB-75; NCI/ADR-RES; NCI-H522; EKVX.
Assay in all cases: NCI tumour cell line growth inhibition, 48 h

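Following 48 hours of exposure in 96-well plates, responses at five concentrations were used to interpolate endpoints linearly. At the GI50, growth is halved.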 Activity calls are given as the source filed them. Rule as the data show it: active = GI50 up to about 1.1 µM and inactive = higher. A value given as a limit tells only on which side of the number the result lay.

As for `OCC1OC(NC(=S)NCSCCC(F)(F)C(F)(F)C(F)(F)C(F)(F)C(F)(F)C(F)(F)F)C(O)C(O)C1O` (stereo unspecified), the GI50 in the assay with CCRF-CEM is 23.3 µM (inactive); in the assay on M14 it was 17 µM (inactive); with Hs-578T it was 33.5 µM (inactive); with SK-MEL-2, 51.6 µM (inactive); in the assay with Malme-3M, 73.8 µM (inactive); in the assay on K562, 19.9 µM (inactive). Also, the GI50 with MDA-MB-435 was 16.4 µM (inactive); with SN12C, 60 µM (inactive); with SR, 49.3 µM (inactive); in the assay with HOP-62, 32.4 µM (inactive); with ACHN, 35.2 µM (inactive); in the assay on NCI-H23, 39.5 µM (inactive). The GI50 in the assay with HT-29 is 34.2 µM (inactive); in the assay on TK-10, 49.7 µM (inactive); in the assay on HCT-116, 34.4 µM (inactive); in the assay with SNB-75, 96.4 µM (inactive); in the assay with NCI/ADR-RES, > 100 µM (inactive).

Take `CC(=O)O[C@@H](C1C[C@@H](C)[C@H]2[C@@](O)(O1)[C@H](O)[C@@]1(C)C3=CC[C@H]4C(C)(C)[C@@H](OC5OCC(O)C(O)C5O)CC[C@@]45C[C@@]35CC[C@]21C)C(C)(C)O` (stereo partly specified): the GI50 is 2.82 µM (inactive) in the assay on CCRF-CEM; 29.3 µM (inactive) in the assay with M14; 30.1 µM (inactive) in the assay on Hs-578T; 18.6 µM (inactive) in the assay on SK-MEL-2; 23.8 µM (inactive) in the assay with Malme-3M; 28.2 µM (inactive) in the assay on K562. Besides, the GI50 with MDA-MB-435 is 24 µM (inactive); in the assay on SN12C, 22.8 µM (inactive); with NCI-H522 it was 17.8 µM (inactive); with SR, 14.7 µM (inactive); in the assay with HOP-62 it was 32.7 µM (inactive); with ACHN, 20.8 µM (inactive). In addition, the GI50 is 22.4 µM (inactive) with NCI-H23; 24.2 µM (inactive) in the assay with EKVX; 25.8 µM (inactive) with HT-29; 22.6 µM (inactive) with TK-10; 18.1 µM (inactive) in the assay with HCT-116; 46.8 µM (inactive) with NCI/ADR-RES.

Consider `CCCCCCCCCCCCOC1C(COCCN2CCCCC2)OC2OC(C)(C)OC21` (stereo unspecified), for which the GI50 in the assay with CCRF-CEM is 1.1 µM (active); in the assay on M14, 1.63 µM (inactive); with Hs-578T, 2 µM (inactive); in the assay with SK-MEL-2, 1.73 µM (inactive); with Malme-3M, 1.86 µM (inactive); with K562 it was 1.11 µM (active). For the same molecule, the GI50 is 1.76 µM (inactive) with MDA-MB-435; 2.21 µM (inactive) with SN12C; 1.59 µM (inactive) in the assay with NCI-H522; < 0.01 µM (active) with SR; 1.84 µM (inactive) in the assay with HOP-62; 2.12 µM (inactive) with ACHN. The GI50 with NCI-H23 is 2.47 µM (inactive); in the assay on HT-29, 1.21 µM (inactive); with TK-10, 1.83 µM (inactive); in the assay on HCT-116, 1.67 µM (inactive); in the assay with NCI/ADR-RES it was 4.3 µM (inactive).

As to `CC(=O)OCC1OC(N2C(=O)/C(=C\c3ccc(Cl)cc3)C(N)=Nc3ccccc32)C(OC(C)=O)C(OC(C)=O)C1OC(C)=O` (stereo unspecified), the GI50 is 20.2 µM (inactive) with M14; 28.4 µM (inactive) in the assay with Hs-578T; 25.4 µM (inactive) with SK-MEL-2; 28.2 µM (inactive) in the assay on Malme-3M; 12.5 µM (inactive) with K562; 16 µM (inactive) with MDA-MB-435. Moreover, the GI50 is 29.2 µM (inactive) in the assay with SN12C; 16.4 µM (inactive) with SR; 29.2 µM (inactive) with HOP-62; 20.2 µM (inactive) with ACHN; 25.9 µM (inactive) in the assay on NCI-H23; 29.2 µM (inactive) with EKVX. Besides, the GI50 with HT-29 was 25.7 µM (inactive); in the assay with TK-10 it was 28.1 µM (inactive); with HCT-116 it was 16.6 µM (inactive); with SNB-75 it was 19.1 µM (inactive); in the assay with NCI/ADR-RES it was 51.1 µM (inactive).

Turning to `Nc1nc(O)c2c(n1)NCN(c1ccc(S(N)(=O)=O)cc1)C2`, the GI50 with M14, in the assay with Hs-578T, in the assay on SK-MEL-2, with Malme-3M, in the assay with K562 and with MDA-MB-435 was > 100 µM (inactive) in each case. Further, the GI50 in the assay on SN12C was > 100 µM (inactive); with NCI-H522 it was > 100 µM (inactive); in the assay with SR, > 100 µM (inactive); in the assay with HOP-62, 71 µM (inactive); in the assay on ACHN, > 100 µM (inactive); with EKVX, > 100 µM (inactive). Further, the GI50 in the assay with HT-29, in the assay with TK-10, in the assay with HCT-116 and in the assay on NCI/ADR-RES was > 100 µM (inactive) throughout.

With `O=[N+]([O-])c1cccc(Cl)c1Oc1ccc(S(=O)(=O)N/C(=N\O)Nc2ccc(Cl)cc2)cc1`, the GI50 with CCRF-CEM is 2.55 µM (inactive); in the assay on M14 it was 14.2 µM (inactive); with Hs-578T, 5.79 µM (inactive); with SK-MEL-2, 13 µM (inactive); in the assay on Malme-3M, 13.1 µM (inactive); in the assay with K562, 14.3 µM (inactive). For the same molecule, the GI50 in the assay on MDA-MB-435 is 14.3 µM (inactive); with SN12C, 12.3 µM (inactive); with NCI-H522, 4.74 µM (inactive); with SR, 6.14 µM (inactive); with HOP-62, 20.2 µM (inactive); in the assay with ACHN, 14.1 µM (inactive). Also, the GI50 in the assay with NCI-H23 was 15.5 µM (inactive); in the assay on EKVX it was 12.2 µM (inactive); with HT-29, 17.1 µM (inactive); in the assay with TK-10 it was 14.8 µM (inactive); with HCT-116 it was 12.5 µM (inactive); in the assay with NCI/ADR-RES, 20.3 µM (inactive).

For the molecule `COc1c2c(cc3c1OCO3)[C@]13C=C[C@H](OC)C[C@H]1N(C2)CC3O` (stereo partly specified), the GI50 with CCRF-CEM, with M14, in the assay with Hs-578T, in the assay with SK-MEL-2, with Malme-3M and in the assay with MDA-MB-435 was > 100 µM (inactive) in each case. For the same molecule, the GI50 with SN12C was > 100 µM (inactive); in the assay on NCI-H522, > 100 µM (inactive); with SR it was 18.4 µM (inactive); with HOP-62, > 100 µM (inactive); in the assay on ACHN, > 100 µM (inactive); with NCI-H23, > 100 µM (inactive). For the same molecule, the GI50 in the assay on EKVX, in the assay on HT-29, with TK-10, with HCT-116 and with NCI/ADR-RES was > 100 µM (inactive) each time.

For the molecule `O=C(O)CC(C(=O)O)C1c2ccccc2-c2ccccc21` (stereo unspecified), the GI50 with CCRF-CEM is 32.4 µM (inactive); in the assay with M14, > 100 µM (inactive); in the assay on Hs-578T, > 100 µM (inactive); with SK-MEL-2 it was > 100 µM (inactive); in the assay on Malme-3M it was 58.6 µM (inactive); in the assay on K562, > 100 µM (inactive). For the same molecule, the GI50 is 77.1 µM (inactive) with MDA-MB-435; > 100 µM (inactive) with SN12C; 47.9 µM (inactive) with NCI-H522; 37.5 µM (inactive) with SR; 38.2 µM (inactive) with HOP-62; 92.9 µM (inactive) in the assay with ACHN. The GI50 in the assay with NCI-H23 was 92.3 µM (inactive); in the assay on EKVX, > 100 µM (inactive); in the assay with HT-29, > 100 µM (inactive); with TK-10 it was > 100 µM (inactive); in the assay on HCT-116, > 100 µM (inactive); in the assay on NCI/ADR-RES, > 100 µM (inactive).

As to `COc1cc(NCC2COc3c(ccc(OC)c3OC)C2=O)c([N+](=O)[O-])cc1OC` (stereo unspecified), the GI50 in the assay with CCRF-CEM is 53.2 µM (inactive); in the assay on M14 it was > 100 µM (inactive); in the assay with Hs-578T, 95.3 µM (inactive); in the assay on SK-MEL-2, > 100 µM (inactive); in the assay with K562, 31 µM (inactive); with MDA-MB-435, > 100 µM (inactive). Further, the GI50 in the assay with SN12C was 70.1 µM (inactive); in the assay on NCI-H522, 55.7 µM (inactive); in the assay on SR it was 30.8 µM (inactive); in the assay on HOP-62 it was > 100 µM (inactive); with ACHN, > 100 µM (inactive); with NCI-H23, > 100 µM (inactive). The GI50 in the assay on EKVX was 95.1 µM (inactive); with HT-29, > 100 µM (inactive); in the assay with TK-10 it was > 100 µM (inactive); with HCT-116 it was > 100 µM (inactive); in the assay with SNB-75 it was 60.1 µM (inactive); with NCI/ADR-RES it was > 100 µM (inactive).

On to `O=C(Nc1nn(C(=O)c2ccc(Cl)cc2)c(=O)s1)c1ccc(Cl)cc1`, for which the GI50 was 76.4 µM (inactive) with CCRF-CEM; > 100 µM (inactive) in the assay with M14; > 100 µM (inactive) in the assay with Hs-578T; > 100 µM (inactive) in the assay on Malme-3M; 77.8 µM (inactive) in the assay on K562; > 100 µM (inactive) with MDA-MB-435. Besides, the GI50 in the assay with SN12C, with NCI-H522, with SR, in the assay with HOP-62, in the assay with ACHN and in the assay on NCI-H23 was > 100 µM (inactive) each time. Moreover, the GI50 is 94.8 µM (inactive) with EKVX; > 100 µM (inactive) with HT-29; > 100 µM (inactive) in the assay on TK-10; > 100 µM (inactive) in the assay on HCT-116; > 100 µM (inactive) in the assay on NCI/ADR-RES.

On to `COC(=O)C(C)(C)NC(=O)C(Cc1ccccc1)Nc1ncnc2c1ncn2-c1ccc(OC)cc1` (stereo unspecified), for which the GI50 with CCRF-CEM is 13.5 µM (inactive); in the assay with M14, 42.7 µM (inactive); in the assay on Hs-578T, 27.8 µM (inactive); with SK-MEL-2 it was 37.5 µM (inactive); in the assay with K562 it was > 100 µM (inactive); in the assay on MDA-MB-435, 14.9 µM (inactive). Further, the GI50 with SN12C was 85.1 µM (inactive); in the assay on NCI-H522, 13.1 µM (inactive); with SR, > 10 µM (inactive); in the assay with HOP-62, 35.2 µM (inactive); with ACHN it was > 100 µM (inactive); in the assay on NCI-H23, 56.8 µM (inactive). Further, the GI50 was 10.8 µM (inactive) in the assay with EKVX; 19.9 µM (inactive) in the assay on HT-29; > 100 µM (inactive) with TK-10; 28.2 µM (inactive) in the assay on HCT-116; 24.1 µM (inactive) in the assay with SNB-75; 31.3 µM (inactive) in the assay on NCI/ADR-RES.
